Here are results for 28 compounds from patent publication US20220356174A1, “PYRIDIN-2-ONE COMPOUNDS USEFUL AS SMARCA2 ANTAGONISTS” (Epizyme, Inc., priority 2018, published 2022).

Each structure is given as a SMILES string.

T1 sequence (P51531 with tags, fused parts or gaps): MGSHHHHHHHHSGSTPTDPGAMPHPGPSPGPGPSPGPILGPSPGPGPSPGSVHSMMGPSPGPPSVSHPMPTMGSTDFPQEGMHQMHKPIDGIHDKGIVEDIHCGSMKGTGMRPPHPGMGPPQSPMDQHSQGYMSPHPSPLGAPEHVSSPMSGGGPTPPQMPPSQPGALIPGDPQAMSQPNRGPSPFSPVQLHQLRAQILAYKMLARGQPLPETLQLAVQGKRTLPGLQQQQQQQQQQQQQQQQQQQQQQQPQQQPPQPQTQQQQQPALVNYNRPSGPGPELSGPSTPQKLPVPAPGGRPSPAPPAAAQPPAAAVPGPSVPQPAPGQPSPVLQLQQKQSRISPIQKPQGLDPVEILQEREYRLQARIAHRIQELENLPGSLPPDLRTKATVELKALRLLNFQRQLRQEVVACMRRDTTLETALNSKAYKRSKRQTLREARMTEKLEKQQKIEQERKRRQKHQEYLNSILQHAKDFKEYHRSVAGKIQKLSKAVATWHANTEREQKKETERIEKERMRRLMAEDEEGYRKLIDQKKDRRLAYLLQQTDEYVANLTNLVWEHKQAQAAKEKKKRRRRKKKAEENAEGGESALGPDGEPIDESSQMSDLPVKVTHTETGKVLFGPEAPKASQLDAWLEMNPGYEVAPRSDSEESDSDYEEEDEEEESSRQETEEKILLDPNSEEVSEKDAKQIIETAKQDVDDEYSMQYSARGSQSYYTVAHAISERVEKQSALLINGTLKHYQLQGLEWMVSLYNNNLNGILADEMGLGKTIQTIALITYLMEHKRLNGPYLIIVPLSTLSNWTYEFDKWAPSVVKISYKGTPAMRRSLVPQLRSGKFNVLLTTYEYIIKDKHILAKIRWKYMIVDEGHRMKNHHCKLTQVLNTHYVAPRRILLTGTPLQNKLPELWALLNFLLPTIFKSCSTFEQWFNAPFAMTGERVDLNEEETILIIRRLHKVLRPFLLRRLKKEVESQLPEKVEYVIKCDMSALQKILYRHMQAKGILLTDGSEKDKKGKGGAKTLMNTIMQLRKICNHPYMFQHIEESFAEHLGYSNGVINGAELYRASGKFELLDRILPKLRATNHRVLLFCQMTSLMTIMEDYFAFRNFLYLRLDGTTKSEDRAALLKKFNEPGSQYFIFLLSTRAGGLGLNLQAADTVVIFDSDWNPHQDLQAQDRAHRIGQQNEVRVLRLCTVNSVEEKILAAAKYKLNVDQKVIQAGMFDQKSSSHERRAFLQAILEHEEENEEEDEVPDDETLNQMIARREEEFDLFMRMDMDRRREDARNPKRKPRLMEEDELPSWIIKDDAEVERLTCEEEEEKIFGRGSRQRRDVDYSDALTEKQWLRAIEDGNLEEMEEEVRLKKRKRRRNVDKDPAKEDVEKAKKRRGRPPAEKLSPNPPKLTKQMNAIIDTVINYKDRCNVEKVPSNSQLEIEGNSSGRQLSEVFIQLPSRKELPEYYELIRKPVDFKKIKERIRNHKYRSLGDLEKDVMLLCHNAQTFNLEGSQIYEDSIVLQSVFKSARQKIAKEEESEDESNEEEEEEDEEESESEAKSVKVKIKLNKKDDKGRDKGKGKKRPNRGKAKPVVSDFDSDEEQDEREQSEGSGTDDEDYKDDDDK

One assay has as its target T1, FL-SMARCA2 (full-length human SMARCA2 isoform 1) (Homo sapiens, UniProt P51531).
T1 construct: FLAG tag (YKDDDDK) (C); made in house; host or cells: Sf21 insect cells (baculovirus, pFastBacI)
In words: SMARCA2 ATPase activity assay (ADP-Glo, chicken mononucleosome substrate). In kind it is biochemical. The note with it: Table 3a.1; SMARCA2 5 nM, ATP 250 uM, mononucleosome 10 nM. (ADP-Glo turns the ADP formed in a reaction into a luminescent signal.)
As a reminder, the IC50 is the concentration needed to halve the response being measured. A low value points to greater potency. `CCn1cc(NC(=O)c2cncc(Cl)c2)ccc1=O` [Compound 17a]: the IC50 was > 50 µM.

Take `CCn1cc(NC(=O)[C@H]2CCC(=O)N(C)[C@@H]2c2ccncc2)ccc1=O` [Compound 5a]: the IC50 is > 50 µM.

As to `CCn1cc(NC(=O)c2cnc3c(Cl)cccn23)ccc1=O` [Compound 29a], the IC50 is > 50 µM.

In the case of `CCn1cc(NC(=O)n2cc3ccccc3n2)ccc1=O` [Compound 39a], the concentration for half-maximal inhibition (IC50) was > 50 µM.

Take `O=C(Nc1cc(F)c(=O)n(CCF)c1)c1cc2cncnc2[nH]1` [Compound 66a]: the IC50 was 32.1 µM.

For the compound `CCn1cc(NC(=O)c2ccc3ccccc3n2)ccc1=O` [Compound 26a], the IC50 was > 50 µM.

Take `O=C(Nc1ccc(=O)n(CC(F)(F)F)c1)c1nc2cc(F)c(Cl)cc2[nH]1` [Compound 41a]: the IC50 was > 50 µM.

Still in this assay, the particulars now being: Table 3b.1; SMARCA2 5 nM, ATP 250 uM, mononucleosome 10 nM.
On to `N#Cc1ccc(C(=O)Nc2cc(F)c(=O)n(CCF)c2)cc1C#N` [Compound 20b], for which the concentration for half-maximal inhibition (IC50) amounted to 2.46 µM.

In the case of `N#Cc1cc(C(=O)Nc2cc(F)c(=O)n(CCF)c2)ccc1Cl` [Compound 18b], the 50% inhibitory concentration (IC50) turned out to be 0.917 µM.

Still in this assay, the particulars now being: Table 3c.1; ATPase assay, enzyme 5 nM, ATP 250 uM, chicken mononucleosome 10 nM, 30 min preincubation.
In the case of `O=C(Nc1cc(F)c(=O)n(CC(F)F)c1)C1CCC(C(F)(F)F)O1` (centres unmarked) [Compound 135c], inhibition was half-maximal at 39.5 µM (IC50).

For `O=C(Nc1cc(F)c(=O)n(CC(F)F)c1)c1cc(C#CC2CN(CC(F)(F)F)C2)c(Cl)s1` [Compound 69c], the IC50 was determined as 1 µM.

On to `O=C(Nc1cc(F)c(=O)n(CC(F)F)c1)[C@@H]1CCCN1` [Compound 15c], for which the IC50 was > 50 µM.

Regarding `CS(=O)(=O)c1cc(NC(=O)c2cc(F)c(Cl)s2)cn(CC(F)F)c1=O` [Compound 11c], the IC50 is > 50 µM.

As for `NCCCn1cc(NC(=O)c2cc(F)c(Cl)s2)cc(F)c1=O` [Compound 28c], the 50% inhibitory concentration (IC50) is > 50 µM.

`O=C(Nc1cc(F)c(=O)n(CC(F)F)c1)c1cc(C#Cc2ccnnc2)c(Cl)s1` [Compound 133c] gave an IC50 of 0.0139 µM.

Compound `NCCn1cc(NC(=O)c2cc(F)c(Cl)s2)cc(F)c1=O` [Compound 32c] had an IC50 of 5.67 µM.

`O=C(Nc1cc(F)c(=O)n(CC(F)F)c1)c1cc(C#Cc2cccc3c2CNC3=O)c(Cl)s1` [Compound 137c]: the IC50 is 0.3 µM.

Regarding `O=C(Nc1ccc(=O)n(CC(F)F)c1)c1sc(C(F)(F)F)cc1Cl` [Compound 46c], the IC50 was > 50 µM.

For the compound `Cn1cc(-c2cc(NC(=O)c3cc(Cl)c(C(F)(F)F)s3)cn(CC(F)F)c2=O)cn1` [Compound 14c], the IC50 was > 50 µM.

On to `O=C(Nc1cc(F)c(=O)n(CC(F)F)c1)c1cc(N2CCN(c3ccncc3)CC2)c(Cl)s1` [Compound 119c], for which the 50% inhibitory concentration (IC50) was 6.17 µM.

On to `Cn1ccnc1-c1cc(NC(=O)c2cc(Cl)c(C(F)(F)F)s2)cn(CC(F)F)c1=O` [Compound 88c], for which the half-inhibitory concentration (IC50) was > 50 µM.

Take `O=C(Nc1cc(F)c(=O)n(CC(F)F)c1)c1cc(F)c(F)s1` [Compound 109c]: it took 0.0625 µM to reach half-maximal inhibition (IC50).

The same assay, now with this note: Table 3.1; ATPase assay, enzyme 5 nM, ATP 250 uM, chicken mononucleosome 10 nM, 30 min preincubation.
`CCn1cc(NC(=O)c2cc(C(C)C)n(-c3ccccn3)n2)ccc1=O` [Compound 10]: the IC50 was > 50 µM.

`O=C(Nc1ccc(=O)n(CC2CC2)c1)c1cc(Cl)c(Cl)s1` [Compound 82] yielded a concentration for half-maximal inhibition (IC50) of 14.8 µM.

For `CCn1cc(NC(=O)c2coc(Br)n2)ccc1=O` [Compound 35], the IC50 was > 50 µM.

Turning to `CCn1cc(NC(=O)c2cc(Cl)[nH]c2Cl)ccc1=O` [Compound 97], the IC50 was > 50 µM.

Regarding `O=C(Nc1cc(NCCn2ccnc2)c(=O)n(CCF)c1)c1cc(Cl)c(Cl)s1` [Compound 263], the midpoint of inhibition, the IC50, lay at 21.6 µM.

`CCCn1cc(NC(=O)c2cc(Cl)c(Cl)n2C)ccc1=O` [Compound 68] displayed an IC50 of 8.55 µM.

In the next assay the target is FL-SMARCA4 (Homo sapiens, UniProt P51532). In words: SMARCA4 ATPase activity assay (ADP-Glo, chicken mononucleosome substrate). Particulars: FL-SMARCA4 IC50, Table 3a.2; SMARCA4 5 nM, ATP 250 uM, mononucleosome 10 nM.
FL-SMARCA4, sequence (P51532 whole entry): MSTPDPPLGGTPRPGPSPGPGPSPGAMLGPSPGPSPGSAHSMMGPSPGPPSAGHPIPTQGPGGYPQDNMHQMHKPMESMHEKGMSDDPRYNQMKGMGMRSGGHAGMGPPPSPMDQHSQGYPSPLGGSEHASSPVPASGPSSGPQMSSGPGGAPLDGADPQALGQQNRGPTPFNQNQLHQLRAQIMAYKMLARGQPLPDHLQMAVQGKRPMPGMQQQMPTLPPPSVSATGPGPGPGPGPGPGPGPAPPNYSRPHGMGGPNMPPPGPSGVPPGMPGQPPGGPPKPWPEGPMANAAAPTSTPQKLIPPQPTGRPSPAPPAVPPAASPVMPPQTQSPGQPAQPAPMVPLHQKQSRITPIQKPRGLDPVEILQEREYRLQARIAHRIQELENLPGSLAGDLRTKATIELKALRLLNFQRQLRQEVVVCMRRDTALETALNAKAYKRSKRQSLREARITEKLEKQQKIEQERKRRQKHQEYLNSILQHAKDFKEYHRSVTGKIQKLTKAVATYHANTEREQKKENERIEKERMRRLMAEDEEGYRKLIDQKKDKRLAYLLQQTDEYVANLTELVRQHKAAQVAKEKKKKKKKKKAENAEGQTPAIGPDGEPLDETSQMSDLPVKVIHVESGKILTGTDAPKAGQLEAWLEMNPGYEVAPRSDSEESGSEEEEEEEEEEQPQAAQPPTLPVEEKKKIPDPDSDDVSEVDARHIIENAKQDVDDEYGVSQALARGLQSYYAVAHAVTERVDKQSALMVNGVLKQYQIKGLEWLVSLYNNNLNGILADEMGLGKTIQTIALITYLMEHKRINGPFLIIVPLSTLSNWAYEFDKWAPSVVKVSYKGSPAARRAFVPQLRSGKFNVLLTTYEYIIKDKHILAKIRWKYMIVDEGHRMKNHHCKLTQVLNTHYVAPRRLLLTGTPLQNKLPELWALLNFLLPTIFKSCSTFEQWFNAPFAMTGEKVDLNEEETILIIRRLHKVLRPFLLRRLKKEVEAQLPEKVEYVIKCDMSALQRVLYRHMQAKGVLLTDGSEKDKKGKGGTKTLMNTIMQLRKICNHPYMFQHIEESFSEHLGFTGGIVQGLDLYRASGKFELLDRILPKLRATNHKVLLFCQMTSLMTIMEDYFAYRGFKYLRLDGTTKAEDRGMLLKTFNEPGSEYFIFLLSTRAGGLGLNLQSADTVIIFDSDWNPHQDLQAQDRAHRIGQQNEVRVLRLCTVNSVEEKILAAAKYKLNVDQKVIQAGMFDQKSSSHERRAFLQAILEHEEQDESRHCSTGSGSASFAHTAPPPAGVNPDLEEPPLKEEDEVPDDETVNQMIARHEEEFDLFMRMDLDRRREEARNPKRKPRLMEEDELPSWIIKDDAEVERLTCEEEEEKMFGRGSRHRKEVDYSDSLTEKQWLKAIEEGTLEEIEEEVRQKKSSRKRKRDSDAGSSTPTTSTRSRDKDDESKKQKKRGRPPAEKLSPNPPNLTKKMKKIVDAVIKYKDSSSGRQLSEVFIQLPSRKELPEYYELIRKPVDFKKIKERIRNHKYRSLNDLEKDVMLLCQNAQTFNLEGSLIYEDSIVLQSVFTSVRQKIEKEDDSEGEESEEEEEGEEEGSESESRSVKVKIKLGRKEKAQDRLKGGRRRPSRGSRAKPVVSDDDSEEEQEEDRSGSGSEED
As to `CCn1cc(NC(=O)c2cncc(Cl)c2)ccc1=O` [Compound 17a], the IC50 is > 50 µM.

Turning to `CCn1cc(NC(=O)[C@H]2CCC(=O)N(C)[C@@H]2c2ccncc2)ccc1=O` [Compound 5a], the IC50 was > 50 µM.

As for `CCn1cc(NC(=O)c2cnc3c(Cl)cccn23)ccc1=O` [Compound 29a], the IC50 was > 50 µM.

For the compound `CCn1cc(NC(=O)n2cc3ccccc3n2)ccc1=O` [Compound 39a], the IC50 is > 50 µM.

On to `O=C(Nc1cc(F)c(=O)n(CCF)c1)c1cc2cncnc2[nH]1` [Compound 66a], for which the IC50 is > 50 µM.

For `CCn1cc(NC(=O)c2ccc3ccccc3n2)ccc1=O` [Compound 26a], the IC50 was > 50 µM.

For the compound `O=C(Nc1ccc(=O)n(CC(F)(F)F)c1)c1nc2cc(F)c(Cl)cc2[nH]1` [Compound 41a], the IC50 was > 50 µM.

Staying with this assay, now noted: FL-SMARCA4 IC50, Table 3b.2; SMARCA4 5 nM, ATP 250 uM, mononucleosome 10 nM.
Regarding `N#Cc1ccc(C(=O)Nc2cc(F)c(=O)n(CCF)c2)cc1C#N` [Compound 20b], the IC50 is 11.5 µM.

`N#Cc1cc(C(=O)Nc2cc(F)c(=O)n(CCF)c2)ccc1Cl` [Compound 18b] showed an IC50 of 5.34 µM.

The same assay, now with this note: FL-SMARCA4 IC50, Table 3.2; ATPase assay, enzyme 5 nM, ATP 250 uM, chicken mononucleosome 10 nM, 30 min preincubation.
Consider `CCn1cc(NC(=O)c2cc(C(C)C)n(-c3ccccn3)n2)ccc1=O` [Compound 10], for which the IC50 is > 50 µM.

For the compound `O=C(Nc1ccc(=O)n(CC2CC2)c1)c1cc(Cl)c(Cl)s1` [Compound 82], the IC50 was 28.9 µM.

As to `CCn1cc(NC(=O)c2coc(Br)n2)ccc1=O` [Compound 35], the IC50 was > 50 µM.

For the compound `CCn1cc(NC(=O)c2cc(Cl)[nH]c2Cl)ccc1=O` [Compound 97], the IC50 is > 50 µM.

`O=C(Nc1cc(NCCn2ccnc2)c(=O)n(CCF)c1)c1cc(Cl)c(Cl)s1` [Compound 263] yielded an IC50 of 27.4 µM.

Take `CCCn1cc(NC(=O)c2cc(Cl)c(Cl)n2C)ccc1=O` [Compound 68]: the IC50 was > 50 µM.

The same assay, now with this note: FL-SMARCA4 IC>50, Table 3c.2; ATPase assay, enzyme 5 nM, ATP 250 uM, chicken mononucleosome 10 nM, 30 min preincubation.
`O=C(Nc1cc(F)c(=O)n(CC(F)F)c1)C1CCC(C(F)(F)F)O1` (centres unmarked) [Compound 135c]: inhibition was half-maximal at 35.8 µM (IC50).

The compound `O=C(Nc1cc(F)c(=O)n(CC(F)F)c1)c1cc(C#CC2CN(CC(F)(F)F)C2)c(Cl)s1` [Compound 69c] gave an IC50 of 3.77 µM.

As for `O=C(Nc1cc(F)c(=O)n(CC(F)F)c1)[C@@H]1CCCN1` [Compound 15c], the half-maximal inhibitory concentration (IC50) is > 50 µM.

Turning to `CS(=O)(=O)c1cc(NC(=O)c2cc(F)c(Cl)s2)cn(CC(F)F)c1=O` [Compound 11c], the IC50 is > 50 µM.

In the case of `NCCCn1cc(NC(=O)c2cc(F)c(Cl)s2)cc(F)c1=O` [Compound 28c], the IC50 was > 50 µM.

In turn, `O=C(Nc1cc(F)c(=O)n(CC(F)F)c1)c1cc(C#Cc2ccnnc2)c(Cl)s1` [Compound 133c] showed an IC50 of 0.0607 µM.

As for `NCCn1cc(NC(=O)c2cc(F)c(Cl)s2)cc(F)c1=O` [Compound 32c], the IC50 came to 12.5 µM.

`O=C(Nc1cc(F)c(=O)n(CC(F)F)c1)c1cc(C#Cc2cccc3c2CNC3=O)c(Cl)s1` [Compound 137c] gave an IC50 of 0.558 µM.

In the case of `O=C(Nc1ccc(=O)n(CC(F)F)c1)c1sc(C(F)(F)F)cc1Cl` [Compound 46c], the half-inhibitory concentration (IC50) is > 50 µM.

Regarding `Cn1cc(-c2cc(NC(=O)c3cc(Cl)c(C(F)(F)F)s3)cn(CC(F)F)c2=O)cn1` [Compound 14c], the IC50 was > 50 µM.

Compound `O=C(Nc1cc(F)c(=O)n(CC(F)F)c1)c1cc(N2CCN(c3ccncc3)CC2)c(Cl)s1` [Compound 119c] had an IC50 of 16.1 µM.

Turning to `Cn1ccnc1-c1cc(NC(=O)c2cc(Cl)c(C(F)(F)F)s2)cn(CC(F)F)c1=O` [Compound 88c], the IC50 was > 50 µM.

`O=C(Nc1cc(F)c(=O)n(CC(F)F)c1)c1cc(F)c(F)s1` [Compound 109c] registered an IC50 of 0.159 µM.
